According to BindingDB's records for doi:10.7270/Q2JM282R (University of Pittsburgh, 2008):

Biological target: RAC-alpha serine/threonine-protein kinase (Homo sapiens, UniProt P31749)
Assay: off-target activity on human AKT1 kinase – biochemical, 57K library, IC50, selectivity assay for PKD inhibitor project, dose response (AID 1378)

Chain of RAC-alpha serine/threonine-protein kinase (P31749 whole entry): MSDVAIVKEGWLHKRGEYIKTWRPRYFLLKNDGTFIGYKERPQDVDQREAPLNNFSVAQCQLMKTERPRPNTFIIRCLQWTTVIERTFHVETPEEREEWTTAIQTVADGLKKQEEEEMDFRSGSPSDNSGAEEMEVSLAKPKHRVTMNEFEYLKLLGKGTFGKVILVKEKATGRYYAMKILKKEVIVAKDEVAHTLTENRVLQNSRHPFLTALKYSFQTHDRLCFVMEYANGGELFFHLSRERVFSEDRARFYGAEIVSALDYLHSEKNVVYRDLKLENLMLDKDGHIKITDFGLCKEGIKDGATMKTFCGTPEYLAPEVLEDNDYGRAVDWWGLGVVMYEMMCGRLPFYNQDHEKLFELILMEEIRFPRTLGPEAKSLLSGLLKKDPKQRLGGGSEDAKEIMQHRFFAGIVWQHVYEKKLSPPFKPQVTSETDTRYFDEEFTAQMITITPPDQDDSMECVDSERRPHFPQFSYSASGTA

SMILES	IC50 [µM]
O=C(O)c1cc(C(=O)C2CCCCC2)c[nH]1 [4-(cyclohexylcarbonyl)-1H-pyrrole-2-carboxylic acid]	> 100
O=C(NNC1=Nc2cccc3cccc1c23)c1ccc(Br)cc1 [SMR000260645]	> 100
CCOC(=O)c1sc(=NC(=O)CCS(=O)(=O)c2ccccc2)n(C)c1C [2-[3-(benzenesulfonyl)-1-oxopropyl]imino-3,4-dimethyl-5-thiazolecarboxylic acid ethyl ester]	> 100
Cc1c(C#N)c(N)nc(Cl)c1C#N [2-amino-6-chloro-4-methyl-3,5-pyridinedicarbonitrile]	> 100
Cc1cc(NC(=O)CCC(=O)N(Cc2ccco2)C(C(=O)NCC2CCCO2)c2ccncc2)no1 (stereo not drawn) [N'-(furan-2-ylmethyl)-N-(5-methyl-1,2-oxazol-3-yl)-N'-[2-oxidanylidene-2-(oxolan-2-ylmethylamino)-1-pyridin-4-yl-ethyl]butanediamide]	> 100
Cn1cccc1C(=O)NC(=O)COC(=O)c1cc(S(=O)(=O)N2CCCCC2)ccc1Cl [[2-[(1-methylpyrrol-2-yl)carbonylamino]-2-oxidanylidene-ethyl] 2-chloranyl-5-piperidin-1-ylsulfonyl-benzoate]	> 100
CC(N=Nc1ncc(Cl)cc1Cl)c1ccccn1 (stereo not drawn) [3,5-dichloro-N-(1-pyridin-2-ylethylideneamino)pyridin-2-amine]	> 100
O=[N+]([O-])c1ccc(Nc2c3ccccc3nc3ccccc23)cc1 [MLS000723809]	> 100
COc1ccc(Cn2c(=O)[nH]c3cc(C(=O)NC4CCCC4)ccc3c2=O)cc1 [MLS000730065]	> 100
O=C1CSCN1c1cc(Cl)ccc1Cl [3-(2,5-dichlorophenyl)-1,3-thiazolan-4-one]	> 100
COc1ccc(CNC(=O)C2Cc3ccccc3CN2C(=O)c2ccco2)cc1 (stereo not drawn) [SMR000343177]	> 100
O=C(CSc1ccncc1)Nc1ccc2ccccc2c1 [N-naphthalen-2-yl-2-pyridin-4-ylsulfanylacetamide]	> 100
CSc1ccccc1C(=O)NCc1ccc(F)cc1	> 100
COC(=O)c1c(NC(=O)C2C3CCC(C3)C2C(=O)O)sc2c1CCCCC2 (stereo not drawn) [SMR000298221]	> 100
O=C(CSc1ccc2nnc(-c3cccnc3)n2n1)c1ccccc1 [1-phenyl-2-[[3-(3-pyridinyl)-[1,2,4]triazolo[4,3-b]pyridazin-6-yl]thio]ethanone]	> 100
O=C(Nc1ccccc1C(=O)N1CCCC1)C1COc2ccccc2O1 (stereo not drawn) [SMR000287780]	> 100
CCCc1cc(=O)[nH]c(SCCCCN2C(=O)c3ccccc3C2=O)n1 [2-[4-[(4-oxidanylidene-6-propyl-1H-pyrimidin-2-yl)sulfanyl]butyl]isoindole-1,3-dione]	> 100
CC1Cc2ccccc2N1c1ncnc(N)c1[N+](=O)[O-] (stereo not drawn) [6-(2-methyl-2,3-dihydro-1H-indol-1-yl)-5-nitro-4-pyrimidinamine]	> 100
